{"source": "patent US20090297566A1", "about": "“Oxygen-impervious packaging with optional oxygen scavenger, stabilized thyroid hormone compositions and methods for storing thyroid hormone pharmaceutical compositions” (priority 2004, published 2009)", "key": {"[1]": {"experiment": "Effects of desiccation and oxygen on levothyroxine sodium raw material, forced degradation at 60°C, potency", "format": "physicochemical", "details": "for % Potency: raw material", "method": "(§1) This study investigated the effects of humidity and oxygen on the storage of levothyroxine sodium raw material under forced degradation conditions (60° C.).\n(§2) High temperature and humidity was known to contribute to potency loss of levothyroxine sodium. Thus, a desiccant was added to the packaging create a low moisture environment to test the effect of reduced humidity upon the shelf life of the product. This study also used a FreshPax Pharma O2 Absorbing Packet as an oxygen scavenger. This oxygen scavenger reduced the level of oxygen in the package to less than 1%. All samples were packaged in 40 cc HDPE bottles.\n(§3) • 1. 60 g of levothyroxine sodium raw material was selected. • 2. The levothyroxine was assayed in duplicate to establish the initial potency under laboratory conditions. • 4. The samples were preparation under laboratory conditions. • 5. 3 g was distributed to each of eighteen 40 cc bottles. • 6. 1 g desiccant was added to each of six bottles. • 7. A single FreshPax Pharma O2 Absorbing Packet was added to each of six bottles. • 8. The remaining six bottles were packaged without desiccant or a packet of FreshPax Pharma O2. • 9. The bottles were capped and sealed using a Compak Jr Sealer and appropriate CRC caps. • 10. All bottles were placed in a 60° C. oven. • 11. The samples were tested for potency, as described in Example 2 and water content at 1-week intervals for three weeks, with a previously unopened sample bottle being tested at each interval. Potency analysis was conducted in duplicate weighings from each bottle correcting for actual water content."}, "[2]": {"experiment": "Water content of levothyroxine sodium raw material during forced degradation at 60°C", "format": "physicochemical", "details": "for % H2O: raw material", "method": "as §1, §2, §3"}, "[3]": {"details": "raw material with FreshPax Pharma O2 packet, 60°C, three weeks"}, "[4]": {"details": "3 g in 40 cc HDPE bottle, Initial"}, "[5]": {"details": "B: FreshPax Pharma O2 packet, 60°C, 1 wk"}, "[6]": {"details": "B: FreshPax Pharma O2 packet, 60°C, 2 wk"}, "[7]": {"details": "B: FreshPax Pharma O2 packet, 60°C, 3 wk"}}}
{"smiles": "N[C@@H](Cc1cc(I)c(Oc2cc(I)c(O)c(I)c2)c(I)c1)C(=O)[O-].[Na+]", "note": "[Levothyroxine Sodium, 3,3′,5,5′-tetraiodo-L-thyronine sodium salt]", "values": [{"measurement": "stability", "setting": "[1]; raw material packaged with FreshPax Pharma O2 packet, 60°C, three weeks", "result": "stable"}, {"measurement": "potency loss", "setting": "[1]; raw material with 1 g silica gel desiccant, 60°C, three-week study", "result": 2.8, "unit": "%"}, {"measurement": "potency loss", "setting": "[1]; [3]", "result": 0.4, "unit": "%"}, {"measurement": "% Potency", "setting": "[1]; [4]", "result": 99.2, "unit": "%"}, {"measurement": "% Potency", "setting": "[1]; A: 1 g silica gel, 60°C, 1 wk", "result": 97.6, "unit": "%"}, {"measurement": "% Potency", "setting": "[1]; A: 1 g silica gel, 60°C, 2 wk", "result": 97.2, "unit": "%"}, {"measurement": "% Potency", "setting": "[1]; A: 1 g silica gel, 60°C, 3 wk", "result": 96.4, "unit": "%"}, {"measurement": "% Potency", "setting": "[1]; [5]", "result": 99.8, "unit": "%"}, {"measurement": "% Potency", "setting": "[1]; [6]", "result": 99.5, "unit": "%"}, {"measurement": "% Potency", "setting": "[1]; [7]", "result": 98.8, "unit": "%"}, {"measurement": "% Potency", "setting": "[1]; C: API alone, 60°C, 1 wk", "result": 99.6, "unit": "%"}, {"measurement": "% Potency", "setting": "[1]; C: API alone, 60°C, 2 wk", "result": 98, "unit": "%"}, {"measurement": "% Potency", "setting": "[1]; C: API alone, 60°C, 3 wk", "result": 97.3, "unit": "%"}, {"measurement": "loss of water content", "setting": "[2]; raw material with 1 g silica gel desiccant, 60°C, within the first week", "result": "over 1%"}, {"measurement": "water content deviation from original water content", "setting": "[2]; [3]", "result": "≤ 1", "unit": "%"}, {"measurement": "% H2O", "setting": "[2]; [4]", "result": 9.9, "unit": "%"}, {"measurement": "% H2O", "setting": "[2]; A: 1 g silica gel, 60°C, 1 wk", "result": 8.5, "unit": "%"}, {"measurement": "% H2O", "setting": "[2]; A: 1 g silica gel, 60°C, 2 wk", "result": 8.7, "unit": "%"}, {"measurement": "% H2O", "setting": "[2]; A: 1 g silica gel, 60°C, 3 wk", "result": 8.8, "unit": "%"}, {"measurement": "% H2O", "setting": "[2]; [5]", "result": 9.1, "unit": "%"}, {"measurement": "% H2O", "setting": "[2]; [6]", "result": 9.6, "unit": "%"}, {"measurement": "% H2O", "setting": "[2]; [7]", "result": 9.6, "unit": "%"}, {"measurement": "% H2O", "setting": "[2]; C: API alone, 60°C, 1 wk", "result": 9.4, "unit": "%"}, {"measurement": "% H2O", "setting": "[2]; C: API alone, 60°C, 2 wk", "result": 8.9, "unit": "%"}, {"measurement": "% H2O", "setting": "[2]; C: API alone, 60°C, 3 wk", "result": 8.8, "unit": "%"}]}
